Six compounds from patent publication US10946033B2, “2′-substituted-N6-substituted purine nucleotides for RNA virus treatment” (priority 2016, dated 2021) can be followed below.

In assay [1] the test system is Dengue virus type 2 (DENV-2). In words: microbe, parasite or virus in culture. Type of assay: cell-based. The conditions noted are these: read-out: DENV-2 EC50.
Another assay deals with Yellow Fever (YFV). In words: microbe, parasite or virus in culture. Type of assay: cell-based, Yellow Fever virus. The conditions noted are these: read-out: YFV EC50.
Setting [2] is: Yellow fever virus, BHK-21, 144 h.

Where two headings read alike, the source gives them in different places.

As usually defined, the EC50 is the concentration that produces a half-maximal response.

As for `C#C[C@@]1(F)[C@H](O)[C@@H](COP(=O)(N[C@@H](C)C(=O)OC(C)C)Oc2ccccc2)O[C@H]1n1cnc2c(N(C)C)nc(N)nc21` (mixture of isomers) [Compound 2, (2S)-Isopropyl 2-(((((2R,3R,4R,5R)-5-(2-amino-6-(dimethylamino)-9H-purin-9-yl)-4-ethynyl-4-fluoro-3-hydroxytetrahydrofuran-2-yl)methoxy)(phenoxy)phosphoryl)amino) propanoate], the EC50 in assay [1] (Dengue virus, DENV2, 144 h) is 72.5 µM; in the assay on Yellow Fever (YFV) (setting [2]) it was 12.6 µM.

As for `C#C[C@@]1(F)[C@H](O)[C@@H](COP(=O)(N[C@@H](C)C(=O)OC(C)C)Oc2ccccc2)O[C@H]1n1cnc2c(NC)nc(N)nc21` (stereo partly drawn) [Compound 4, (2S)-Isopropyl 2-(((((2R,3R,4R,5R)-5-(2-amino-6-(methylamino)-9H-purin-9-yl)-4-ethynyl-4-fluoro-3-hydroxytetrahydrofuran-2-yl)methoxy)phenoxy)phosphoryl)-amino) Propanoate], the results for the EC50 (in assay [1]; in the assay with Yellow Fever (YFV)) were 612 µM and 7 µM, respectively.

For `C#C[C@@]1(F)[C@H](O)[C@@H](COP(=O)(N[C@@H](C)C(=O)OC(C)C)Oc2ccccc2)O[C@H]1n1cnc2c(NC3CC3)nc(N)nc21` (stereo partly drawn) [Compound 6, (2S)-Isopropyl 2-(((((2R,3R,4R,5R)-5-(2-amino-6-(cyclopropylamino)-9H-purin-9-yl)-4-ethynyl-4-fluoro-3-hydroxytetrahydrofuran-2-yl)methoxy)phenoxy)phosphoryl)amino) propanoate], in assay [1], the EC50 is 42 µM.

With `CC(C)OC(=O)[C@H](C)N[P@](=O)(OC[C@H]1C(C)[C@@H](n2cnc3c(N)ncnc32)[C@H](O)[C@@H]1O)Oc1ccccc1` (stereo partly drawn) [Compound 204, (2S)-Isopropyl 2-(((S)-(((1R,3R,4S,5R)-3-(6-amino-9H-purin-9-yl)-4,5-dihydroxy-2-methylcyclopentyl)methoxy)(phenoxy)phosphoryl)amino)propanoate], the EC50 in assay [1] (Dengue virus, DENV2, 144 h) was more than 2.1 µM; with Yellow Fever (YFV) (setting [2]) it was more than 2.1 µM.

As to `CNc1nc(N)nc2c1ncn2[C@@H]1O[C@H](CO[P@@](=O)(N[C@@H](C)C(=O)OC(C)C)Oc2ccccc2)[C@@H](O)[C@@]1(C)F` [Compound 205, isopropyl ((((R,S)-(2R,3R,4R,5R)-5-(2-amino-6-(methylamino)-9H-purin-9-yl)-4-fluoro-3-hydroxy-4-methyltetrahydrofuran-2-yl)methoxy)-phenoxy-phosphoryl)-L-alaninate], the EC50 in assay [1] (Dengue virus, DENV2, 144 h) is 0.8 µM; in the assay with Yellow Fever (YFV) (setting [2]) it was 1.2 µM.

With `CC1[C@@H](n2cnc3c(N)ncnc32)[C@H](O)[C@H](O)[C@H]1CO` (some centres unmarked) [Compound 206], the EC50 is 1.83 µM in assay [1] (Dengue virus, DENV2, 144 h) and 2.3 µM with Yellow Fever (YFV) (setting [2]).
